target: T1, B-Raf kinase (Homo sapiens, UniProt P15056); assay: Biochemical Assay for B-Raf (coupled pyruvate kinase/lactate dehydrogenase assay); conditions: Table 1, inhibition of biochemical activity; read-out: BRAF
T1 construct: GST (N); purchased Sigma
T1 sequence (P15056 416-766): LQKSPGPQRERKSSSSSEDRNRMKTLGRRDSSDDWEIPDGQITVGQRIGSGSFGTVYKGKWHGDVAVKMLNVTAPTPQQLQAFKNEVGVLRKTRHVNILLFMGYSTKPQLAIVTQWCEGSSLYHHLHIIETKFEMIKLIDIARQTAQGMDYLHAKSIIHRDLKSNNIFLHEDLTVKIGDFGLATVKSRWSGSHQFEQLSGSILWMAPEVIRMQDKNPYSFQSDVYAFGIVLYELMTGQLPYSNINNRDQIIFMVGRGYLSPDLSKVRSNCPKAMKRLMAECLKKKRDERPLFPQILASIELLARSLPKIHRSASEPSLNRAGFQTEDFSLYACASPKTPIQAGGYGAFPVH

Structure (SMILES)	IC50
Cc1ccc(NC(=O)Nc2ccc(C(F)(F)F)nc2)cc1-c1ccnc(-c2ccnc(NC(=O)CN(C)C)c2)c1 [Example 18]	< 100 nM
CNc1cc(-c2cc(-c3cc(NC(=O)Nc4ccc(C(F)(F)F)nc4)ccc3C)ccn2)ccn1 [Example 19]	100 to 500 nM
CNC(=O)c1cc(-c2cc(-c3cc(NC(=O)Nc4ccc(C(F)(F)F)nc4)ccc3C)ccn2)ccn1 [Example 20]	100 to 500 nM
Cc1ccc(NC(=O)Nc2ccc(C(F)(F)F)nc2)cc1-c1ccnc(N2CCOCC2)c1 [Example 36]	100 to 500 nM

same assay, conditions: Table 3; read-out: BRAF IC50

Structure (SMILES)	IC50
Cc1ccc(NC(=O)Nc2ccc(C(F)(F)F)nc2)cc1-c1ccnc(-c2ccnc(NC(=O)CN(C)C)c2)c1 [Example 18]	< 100 nM
CNc1cc(-c2cc(-c3cc(NC(=O)Nc4ccc(C(F)(F)F)nc4)ccc3C)ccn2)ccn1 [Example 19]	< 100 nM
CNC(=O)c1cc(-c2cc(-c3cc(NC(=O)Nc4ccc(C(F)(F)F)nc4)ccc3C)ccn2)ccn1 [Example 20]	100 to 500 nM
Cc1ccc(NC(=O)Nc2ccc(C(F)(F)F)nc2)cc1-c1ccnc(N2CCOCC2)c1 [Example 36]	100 to 500 nM

target: T2, C-Raf kinase (Homo sapiens, UniProt P04049, Y340D/Y341D); assay: Biochemical Assay for C-Raf (coupled pyruvate kinase/lactate dehydrogenase assay); conditions: Table 1, inhibition of biochemical activity; read-out: CRAF
T2 construct: C-Raf residues 306-end; Y340D, Y341D with N-; GST (N); purchased Eurofins
T2 sequence (P04049 307-648 Y340D/Y341D): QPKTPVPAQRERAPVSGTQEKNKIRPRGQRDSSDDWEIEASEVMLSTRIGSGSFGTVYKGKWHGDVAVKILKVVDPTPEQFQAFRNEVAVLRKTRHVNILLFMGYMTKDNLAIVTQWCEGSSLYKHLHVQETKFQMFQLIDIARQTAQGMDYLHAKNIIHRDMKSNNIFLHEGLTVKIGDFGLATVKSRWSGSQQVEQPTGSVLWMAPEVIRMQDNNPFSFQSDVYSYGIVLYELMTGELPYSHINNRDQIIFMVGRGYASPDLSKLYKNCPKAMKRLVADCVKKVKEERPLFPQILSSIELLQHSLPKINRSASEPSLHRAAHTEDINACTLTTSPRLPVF

Structure (SMILES)	IC50
Cc1ccc(NC(=O)Nc2ccc(C(F)(F)F)nc2)cc1-c1ccnc(-c2ccnc(NC(=O)CN(C)C)c2)c1 [Example 18]	< 100 nM
CNc1cc(-c2cc(-c3cc(NC(=O)Nc4ccc(C(F)(F)F)nc4)ccc3C)ccn2)ccn1 [Example 19]	< 100 nM
CNC(=O)c1cc(-c2cc(-c3cc(NC(=O)Nc4ccc(C(F)(F)F)nc4)ccc3C)ccn2)ccn1 [Example 20]	< 100 nM
Cc1ccc(NC(=O)Nc2ccc(C(F)(F)F)nc2)cc1-c1ccnc(N2CCOCC2)c1 [Example 36]	< 100 nM

same assay, conditions: Table 3; read-out: CRAF IC50

Structure (SMILES)	IC50
Cc1ccc(NC(=O)Nc2ccc(C(F)(F)F)nc2)cc1-c1ccnc(-c2ccnc(NC(=O)CN(C)C)c2)c1 [Example 18]	< 100 nM
CNc1cc(-c2cc(-c3cc(NC(=O)Nc4ccc(C(F)(F)F)nc4)ccc3C)ccn2)ccn1 [Example 19]	< 100 nM
CNC(=O)c1cc(-c2cc(-c3cc(NC(=O)Nc4ccc(C(F)(F)F)nc4)ccc3C)ccn2)ccn1 [Example 20]	< 100 nM
Cc1ccc(NC(=O)Nc2ccc(C(F)(F)F)nc2)cc1-c1ccnc(N2CCOCC2)c1 [Example 36]	100 to 500 nM

tested on: MiaPaca-2 cells; assay: MiaPaca-2 Cell Proliferation Assay; format: cell-based; conditions: Homo sapiens, MIA PaCa-2; Table 2, inhibition of cell proliferation; read-out: MiaPaca-2
Experimental: MiaPaca-2 cells (catalog #CRL-1420) are obtained from the American Type Culture Collect (ATTC, Manassas, VA). Briefly, cells were grown in DMEM supplemented with 10% characterized fetal bovine serum (Invitrogen, Carlsbad, CA), 2.5% New Zealand sourced horse serum and 1% Penicillin/Streptomycin/L-Glutamine at 37° C., 5% CO2, and 95% humidity. Cells are expanded until reaching 70-95% confluency at which point they are sub-cultured or harvested for assay use. For assays completed in 96-well plates, a serial dilution of test compound is dispensed into a 96-well black clear bottom plate in triplicate. Three thousand cells are added per well in 200 μL complete growth medium in the 96-well plate. Plates are incubated for 67 to 72 h at 37° C., 5% CO2, and 95% humidity. At the end of the incubation, 40 μL of a […] solution of resazurin (Sigma, St. Louis, MO) in PBS is added to each well of the plate and plates are incubated for an additional 5 to 6 hours at 37° C., 5% CO2, and 95% humidity. For 384-well assays, a threefold, 8-point serial dilution of compound was spotted column wise into a 384 well black, clear bottom, tissue culture treated plate using the Beckman Coulter Echo 650. Likewise, a threefold, 8-point serial dilution of cobimetinib was spotted row wise into the 384 well black, clear bottom plate containing compound. DMSO concentration was constant across all wells at 0.4%. Seven hundred fifty cells are added per well in 50 μL complete growth medium in each 384-well plate. Plates are incubated for 67 to 72 h at 37° C., 5% CO2, and 95% humidity. At the end of the incubation, 10 μL of a 440 μM solution of resazurin (Sigma, St. Louis, MO) in PBS is added to each well of the plate and plates are incubated for an additional 4 to 6 h at 37° C., 5% CO2, and 95% humidity. Plates are read on a Synergy2 or equivalent reader (Biotek, Winooski VT) using an excitation of 540 nm and an emission of 600 nm. Data is analyzed using Prism software (Graphpad, San Diego, CA) to calculate IC50 values.

Structure (SMILES)	IC50
Cc1ccc(NC(=O)Nc2ccc(C(F)(F)F)nc2)cc1-c1ccnc(-c2ccnc(NC(=O)CN(C)C)c2)c1 [Example 18]	< 100 nM
CNc1cc(-c2cc(-c3cc(NC(=O)Nc4ccc(C(F)(F)F)nc4)ccc3C)ccn2)ccn1 [Example 19]	100 to 500 nM
CNC(=O)c1cc(-c2cc(-c3cc(NC(=O)Nc4ccc(C(F)(F)F)nc4)ccc3C)ccn2)ccn1 [Example 20]	< 100 nM
Cc1ccc(NC(=O)Nc2ccc(C(F)(F)F)nc2)cc1-c1ccnc(N2CCOCC2)c1 [Example 36]	< 100 nM

same assay, conditions: Homo sapiens, MIA PaCa-2; Table 3; read-out: MiaPaca-2 IC50

Structure (SMILES)	IC50
Cc1ccc(NC(=O)Nc2ccc(C(F)(F)F)nc2)cc1-c1ccnc(-c2ccnc(NC(=O)CN(C)C)c2)c1 [Example 18]	< 100 nM
CNc1cc(-c2cc(-c3cc(NC(=O)Nc4ccc(C(F)(F)F)nc4)ccc3C)ccn2)ccn1 [Example 19]	100 to 500 nM
CNC(=O)c1cc(-c2cc(-c3cc(NC(=O)Nc4ccc(C(F)(F)F)nc4)ccc3C)ccn2)ccn1 [Example 20]	< 100 nM
Cc1ccc(NC(=O)Nc2ccc(C(F)(F)F)nc2)cc1-c1ccnc(N2CCOCC2)c1 [Example 36]	< 100 nM

tested on: HCT-116 cells; assay: HCT-116 Cell Proliferation Assay; format: cell-based; conditions: Homo sapiens, HCT-116; Table 3; read-out: HCT-116 IC50
Experimental: HCT-116 cells (catalog #CCL-247) are obtained from the American Type Culture Collect (ATCC, Manassas, VA). Briefly, cells are grown in McCoy's 5A supplemented with 10% characterized fetal bovine serum (Invitrogen, Carlsbad, CA) and 1% Penicillin/Streptomycin/L-Glutamine at 37° C., 5% CO2, and 95% humidity. Cells are expanded until reaching 70-95% confluency at which point they are sub-cultured or harvested for assay use. A serial dilution of test compound is dispensed into a 384-well black clear bottom plate in triplicate. 375 cells are added per well in 50 μL complete growth medium in the 384-well plate. Plates are incubated for 67 to 72 h at 37° C., 5% CO2, and 95% humidity. At the end of the incubation, 40 μL of a […] solution of resazurin (Sigma, St. Louis, MO) in PBS is added to each well of the plate and plates are incubated for an additional 4 to 5 hours at 37° C., 5% CO2, and 95% humidity. Plates are read on a Synergy2 or equivalent reader (Biotek, Winooski, VT) using an excitation of 540 nm and an emission of 600 nm. Data is analyzed using Prism software (Graphpad, San Diego, CA) to calculate IC50 values.

Structure (SMILES)	IC50
Cc1ccc(NC(=O)Nc2ccc(C(F)(F)F)nc2)cc1-c1ccnc(-c2ccnc(NC(=O)CN(C)C)c2)c1 [Example 18]	100 to 500 nM
CNc1cc(-c2cc(-c3cc(NC(=O)Nc4ccc(C(F)(F)F)nc4)ccc3C)ccn2)ccn1 [Example 19]	100 to 500 nM
CNC(=O)c1cc(-c2cc(-c3cc(NC(=O)Nc4ccc(C(F)(F)F)nc4)ccc3C)ccn2)ccn1 [Example 20]	< 100 nM
Cc1ccc(NC(=O)Nc2ccc(C(F)(F)F)nc2)cc1-c1ccnc(N2CCOCC2)c1 [Example 36]	< 100 nM

same assay, conditions: Homo sapiens; Table 2, inhibition of cell proliferation; read-out: HCT-116

Structure (SMILES)	IC50
CNc1cc(-c2cc(-c3cc(NC(=O)Nc4ccc(C(F)(F)F)nc4)ccc3C)ccn2)ccn1 [Example 19]	100 to 500 nM
CNC(=O)c1cc(-c2cc(-c3cc(NC(=O)Nc4ccc(C(F)(F)F)nc4)ccc3C)ccn2)ccn1 [Example 20]	< 100 nM
Cc1ccc(NC(=O)Nc2ccc(C(F)(F)F)nc2)cc1-c1ccnc(N2CCOCC2)c1 [Example 36]	< 100 nM

tested on: HPAF-II cells; assay: HPAF-II Cell Proliferation Assay; format: cell-based; conditions: Homo sapiens, HPAF-II; Table 3; read-out: HPAF-II IC50
Experimental: HPAF-II cells (catalog #CRL-1997) are obtained from the American Type Culture Collect (ATCC, Manassas, VA). Briefly, cells are grown in Minimum Essential Media supplemented with 10% characterized fetal bovine serum (Invitrogen, Carlsbad, CA) and 1% Penicillin/Streptomycin/L-Glutamine at 37° C., 5% CO2, and 95% humidity. Cells are expanded until reaching 70-95% confluency at which point they are sub-cultured or harvested for assay use. A serial dilution of test compound is dispensed into a 384-well black clear bottom plate in triplicate. 750 cells are added per well in 50 μL complete growth medium in the 384-well plate. Plates are incubated for 115 to 120 h at 37° C., 5% CO2, and 95% humidity. At the end of the incubation, 40 μL of a […] solution of resazurin (Sigma, St. Louis, MO) in PBS is added to each well of the plate and plates are incubated for an additional 18 to 24 h at 37° C., 5% CO2, and 95% humidity. Plates are read on a Synergy2 or equivalent reader (Biotek, Winooski, VT) using an excitation of 540 nm and an emission of 600 nm. Data is analyzed using Prism software (Graphpad, San Diego, CA) to calculate IC50 values.

Structure (SMILES)	IC50
Cc1ccc(NC(=O)Nc2ccc(C(F)(F)F)nc2)cc1-c1ccnc(-c2ccnc(NC(=O)CN(C)C)c2)c1 [Example 18]	100 to 500 nM
CNc1cc(-c2cc(-c3cc(NC(=O)Nc4ccc(C(F)(F)F)nc4)ccc3C)ccn2)ccn1 [Example 19]	100 to 500 nM
CNC(=O)c1cc(-c2cc(-c3cc(NC(=O)Nc4ccc(C(F)(F)F)nc4)ccc3C)ccn2)ccn1 [Example 20]	100 to 500 nM
Cc1ccc(NC(=O)Nc2ccc(C(F)(F)F)nc2)cc1-c1ccnc(N2CCOCC2)c1 [Example 36]	< 100 nM

same assay, conditions: Homo sapiens; Table 2, inhibition of cell proliferation; read-out: HPAF-II

Structure (SMILES)	IC50
CNc1cc(-c2cc(-c3cc(NC(=O)Nc4ccc(C(F)(F)F)nc4)ccc3C)ccn2)ccn1 [Example 19]	100 to 500 nM
CNC(=O)c1cc(-c2cc(-c3cc(NC(=O)Nc4ccc(C(F)(F)F)nc4)ccc3C)ccn2)ccn1 [Example 20]	100 to 500 nM
Cc1ccc(NC(=O)Nc2ccc(C(F)(F)F)nc2)cc1-c1ccnc(N2CCOCC2)c1 [Example 36]	< 100 nM

tested on: tubulin; assay: Cellular Tubulin Polymerization Assay (HCT-116 cells); format: cell-based; conditions: Table 3, HCT-116 cells; read-out: Tubulin Cellular IC50

Structure (SMILES)	IC50
Cc1ccc(NC(=O)Nc2ccc(C(F)(F)F)nc2)cc1-c1ccnc(-c2ccnc(NC(=O)CN(C)C)c2)c1 [Example 18]	100 to 500 nM
CNc1cc(-c2cc(-c3cc(NC(=O)Nc4ccc(C(F)(F)F)nc4)ccc3C)ccn2)ccn1 [Example 19]	< 100 nM
CNC(=O)c1cc(-c2cc(-c3cc(NC(=O)Nc4ccc(C(F)(F)F)nc4)ccc3C)ccn2)ccn1 [Example 20]	< 100 nM
Cc1ccc(NC(=O)Nc2ccc(C(F)(F)F)nc2)cc1-c1ccnc(N2CCOCC2)c1 [Example 36]	< 100 nM
